Experiment [1] deals with T1, IGF-1R (Homo sapiens, UniProt P08069). Kind of experiment: IGF-1R phosphorylation in HaCaT cells (psoriasis model). Format: cell-based. The note with it: 0.05 μM, 1 h, control 100. Also noted: expressed in transfected cells; host or cells: P6 cell line (murine fibroblasts overexpressing human IGF-1R); receptor captured on plates with an antibody to the beta subunit. The protocol: (§1) Keratinocytes (HaCaT cells) were provided by and tested in collaboration with Professor Mona Bäckdahl, Department of Dermatology, Karolinska Hospital, Stockholm, Sweden. The HaCaT cell line is a spontaneously immortalized human keratinocyte cell line (Boukamp P, et al., J Cell Biol 106: 761-771, 1988), which is frequently used as an experimental model for psoriasis (Wraight, C. J., et al. Nat Biotechnol 18: 521-526, 2000.) HaCaT cells were cultured in Dulbecco's Modified Eagle's Medium containing 10% fetal bovine serum, glutamine, benzylpenicillin and streptomycin.
T1 sequence (P08069 31-1367): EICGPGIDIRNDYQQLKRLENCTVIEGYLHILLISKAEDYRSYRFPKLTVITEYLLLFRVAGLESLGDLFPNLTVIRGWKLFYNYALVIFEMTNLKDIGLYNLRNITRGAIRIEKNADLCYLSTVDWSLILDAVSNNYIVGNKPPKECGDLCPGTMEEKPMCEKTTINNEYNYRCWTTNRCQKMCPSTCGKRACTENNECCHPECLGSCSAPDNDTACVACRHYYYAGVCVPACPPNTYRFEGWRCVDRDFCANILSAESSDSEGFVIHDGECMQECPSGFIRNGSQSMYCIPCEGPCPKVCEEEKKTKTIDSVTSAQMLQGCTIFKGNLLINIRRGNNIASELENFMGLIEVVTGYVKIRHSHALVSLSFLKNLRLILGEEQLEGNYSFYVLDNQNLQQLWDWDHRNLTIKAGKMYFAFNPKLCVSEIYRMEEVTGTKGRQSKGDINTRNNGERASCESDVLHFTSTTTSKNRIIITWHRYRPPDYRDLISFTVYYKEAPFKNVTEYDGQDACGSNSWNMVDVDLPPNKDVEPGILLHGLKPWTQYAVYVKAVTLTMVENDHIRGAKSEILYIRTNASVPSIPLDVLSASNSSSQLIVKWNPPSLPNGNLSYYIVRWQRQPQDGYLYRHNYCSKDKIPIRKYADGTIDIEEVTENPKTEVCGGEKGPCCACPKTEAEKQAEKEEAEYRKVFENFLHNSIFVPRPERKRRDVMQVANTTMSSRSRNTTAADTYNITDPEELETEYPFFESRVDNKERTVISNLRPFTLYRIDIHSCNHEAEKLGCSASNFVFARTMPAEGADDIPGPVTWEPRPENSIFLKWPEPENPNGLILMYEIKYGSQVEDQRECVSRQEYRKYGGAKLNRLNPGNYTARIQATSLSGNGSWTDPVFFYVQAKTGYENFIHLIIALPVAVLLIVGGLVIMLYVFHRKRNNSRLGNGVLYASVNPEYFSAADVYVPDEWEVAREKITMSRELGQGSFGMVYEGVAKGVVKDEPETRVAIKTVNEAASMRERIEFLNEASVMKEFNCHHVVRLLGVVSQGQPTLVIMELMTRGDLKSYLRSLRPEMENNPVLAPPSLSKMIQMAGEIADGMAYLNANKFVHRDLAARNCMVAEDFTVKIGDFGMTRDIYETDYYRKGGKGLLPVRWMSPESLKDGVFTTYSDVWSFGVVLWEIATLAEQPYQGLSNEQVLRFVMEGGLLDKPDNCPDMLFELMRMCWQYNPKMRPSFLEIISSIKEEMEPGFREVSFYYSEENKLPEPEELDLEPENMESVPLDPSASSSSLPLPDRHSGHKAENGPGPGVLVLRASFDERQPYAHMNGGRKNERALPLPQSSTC
Cells were cultured to subconfluency in 6-cm plates, and then fresh medium containing 10% FBS and the desired compounds were added for 1 h. The cells were then lyzed and subjected to immunoprecipitation using specific antibodies. […] After detection the films were scanned for quantification.
HaCaT cells, which are immortalized human keratinocytes and represent a model cell line for psoriasis, were seeded in 6-cm dishes or in 96-well plates (medium volume in a well was 100 μl), at a concentration of 7,000 cells/cm^2 in Dulbecco's Modified Eagle's Medium containing 10% fetal bovine serum. […] After 1 h incubation the cells in the 6-cm dishes were harvested for assay and quantification of IGF-1R phosphorylation as described in Experiment 1. […]

Experiment [2] relates to insulin substrate-1 (IRS-1). Kind of experiment: Phosphorylation of IRS-1 in intact FM55 melanoma cells. Type of experiment: cell-based. As to conditions: 0.05 μM, 1 h. The protocol:
(§2) Cells were cultured to subconfluency in 6-cm plates, and then fresh medium containing 10% FBS and the desired compounds were added for 1 h. The cells were then lyzed and subjected to immunoprecipitation using specific antibodies. Immunoprecipitates were resolved by sodium dodecyl sulphate polyacrylamide gel electrophoresis (SDS-PAGE) and transferred to nitro-cellulose membranes and incubated with anti-phosphotyrosine antibody. Antibodies to actin (in cell extract) or IGF-1R beta subunit were used as loading controls. After detection the films were scanned for quantification.
FM55 melanoma cells were cultured in the same way as described in Experiment 1. When reaching a density of 65,000 cells/cm^2 in the dishes, they were treated for 1 h with 0 (control) and 0.05 μM of picropodophyllin and podophyllotoxin, respectively. The cells were then isolated and subjected to immunoprecipitation of the IGF-1R, fibroblast growth factor receptor (FGFR), platelet-derived growth factor receptor (PDGFR), epidermal growth factor receptor (EGFR), insulin receptor (IR) and insulin substrate-1 (IRS-1) using antibodies to respective molecules. IRS-1 is a substrate of IGF-1R, and therefore its phosphorylation is dependent on phosphorylated IGF-1R. Gelelectrophoresis, Western blotting and quantification of the different signals were performed as described above.

In experiment [3] the target is T1, IGF-1R. Kind of experiment: IGF-1R phosphorylation in various malignant cell types (EC50). Type of experiment: cell-based. Also noted: endogenous in cells; host or cells: 12 malignant cell lines (e.g. SK-MEL-2, SK-MEL-5, SK-MEL-28). As to conditions: 1 h. The procedure:
as §2
12 cell lines of different origins were seeded in 6-cm dishes, at a concentration of 10,000 cells/cm^2 in Minimal Essential Medium supplemented with fetal calf serum (FCS). When the cells had reached a concentration of 65,000 cells/cm^2, they were treated with 0, 0.01, 0.025, 0.05, 0.1 or 1.0 uM doses of podophyllotoxin and picropodophyllin for 1 h. The cells were then harvested for assay and quantification of IGF-1R phosphorylation as described above. The EC50 value, the Efficient Concentration 50%, i.e. the concentration needed to reduce the phosphorylation with 50%, for each inhibitor and cell line, is then calculated. The results are based on two different experiments.

Another experiment concerns HaCaT cells. Kind of experiment: Cell viability of HaCaT cells (psoriasis model). Type of experiment: cell-based. As to conditions: Homo sapiens, 48 h, read-out: Cell viability. The protocol: as §1
Cell proliferation kit II (Roche Inc.) is based on colorimetric change of the yellow tetrazolium salt XTT in orange formazan dye by the respiratory chain of viable cells (Roehm, N W, et al., J Immunol Methods 142:257-265, 1991). Cells seeded at a concentration of 5000/well in 100 μl medium in a 96-well plate were treated with different drugs in the given concentration. After 24 or 48 h the cells were incubated, according to the manufacturer's protocol, with XTT labelling mixture. After 4 h the formazan dye is quantified using a scanning multiwell spectrophotometer with a 495-nm filter. The absorbance is directly correlated with the number of viable cells. The standard absorbance curve was drawn by means of untreated cells seeded at a concentration of from 1000 to 10 000 cells/well with an increasing rate of 1000 cells/well. […]

The test system of experiment [4] is PC-3 prostatic carcinoma cell line. Kind of experiment: Cell viability (XTT), PC-3. Format: cell-based. As to conditions: Homo sapiens, read-out: EC50 for cell viability. The protocol:
(§3) Cell proliferation kit II (Roche Inc.) is based on colorimetric change of the yellow tetrazolium salt XTT in orange formazan dye by the respiratory chain of viable cells (Roehm, N W, et al., J Immunol Methods 142:257-265, 1991). Cells seeded at a concentration of 5000/well in 100 μl medium in a 96-well plate were treated with different drugs in the given concentration. After 24 or 48 h the cells were incubated, according to the manufacturer's protocol, with XTT labelling mixture. After 4 h the formazan dye is quantified using a scanning multiwell spectrophotometer with a 495-nm filter. The absorbance is directly correlated with the number of viable cells. The standard absorbance curve was drawn by means of untreated cells seeded at a concentration of from 1000 to 10 000 cells/well with an increasing rate of 1000 cells/well. All standards and experiments were performed in triplicates.
(§4) 12 different types of cell lines were seeded in 96-well plates (medium volume in a well was 100 μl), at a concentration of 10,000 cells/cm^2 in Minimal Essential Medium supplemented with fetal calf serum. When the cells had reached a concentration of 65,000 cells/cm^2, they were treated with different doses of podophyllotoxin and picropodophyllin for 48 h. Cell viability was then assayed (see above). […]
A general note: Tetrazolium assays rely on reduction of a dye to a coloured formazan, in cell work by metabolically active cells.

Experiment [5] has as its system RD-ES Ewing's sarcoma cell line. Kind of experiment: Cell viability (XTT), RD-ES. Type of experiment: cell-based. As to conditions: Homo sapiens, 48 h, read-out: EC50 for cell viability. The procedure:
as §3, §4

A further experiment has as its system HepG2 hepatoma cell line. Kind of experiment: Cell viability (XTT), HepG2. Type of experiment: cell-based. The protocol:
as §3, §4

For experiment [6], the system named is R- cells (IGF-1R negative fibroblasts). Kind of experiment: Cell viability (XTT), R-. Format: cell-based, murine. As to conditions: Mus musculus, Fibroblast, 48 h, read-out: EC50 for cell viability. The procedure: as §3, §4
Where [7] appears, read: P6 fibroblasts with overexpressed IGF-1R.

Molecules are shown by their SMILES. Where two headings read alike, the source gives them in different places. Some results are limits rather than exact numbers.

We go through two compounds from patent publication US7662851B2, “Use of specific cyklolignans” (Axelar AB, priority 2001, dated 2010).

What is called EC50 is the concentration that produces a half-maximal response. The viability is the share of living cells, or the viability signal relative to a control. As to `COc1cc([C@@H]2c3cc4c(cc3[C@H](O)[C@H]3COC(=O)[C@@H]23)OCO4)cc(OC)c1OC` [Picropodophyllin, picropodophyllin], the IGF-1R phosphorylation at IGF-1R [1] worked out at 35. Moreover, the “Level of phosphorylation in intact cells, substrate IRS-1” value in experiment [2] is listed as 17 % OD. Besides, the EC50 on IGF-1R [3] (FM55 melanoma) came out at 60 nM; on IGF-1R [3] (MCF-7 breast cancer) it was 40 nM; on IGF-1R [3] (setting [7]), 30 nM; on IGF-1R [3] (PC-3 prostate cancer), 90 nM; on IGF-1R [3] (RD-ES Ewing's sarcoma), 50 nM; on IGF-1R [3] (SK-MEL-5 melanoma), 40 nM. The concentration giving a half-maximal response (EC50) was 40 nM at IGF-1R [3] (SK-MEL-28 melanoma); 90 nM in experiment [4] (PC-3, 48 h); 100 nM in experiment [5]; greater than 15000 nM with HepG2 hepatoma cell line (Homo sapiens, HepG2, 48 h; read-out: EC50 for cell viability); greater than 15000 nM in experiment [6] (R- (IGF-1R negative fibroblasts)). The viability at 0.05 µM with HaCaT cells (HaCaT cells, 0.05 μM, control 100) was 35%.

`COc1cc([C@@H]2c3cc4c(cc3[C@H](O)[C@H]3COC(=O)[C@H]23)OCO4)cc(OC)c1OC` [Podophyllotoxin, podophyllotoxin] had an IGF-1R phosphorylation at IGF-1R [1] of 45. Further, in experiment [2], the “Level of phosphorylation in intact cells, substrate IRS-1” value was 10 % OD. Also, the EC50 was determined as 40 nM on IGF-1R [3] (BE melanoma); 30 nM on IGF-1R [3] (DWB melanoma); 40 nM at IGF-1R [3] (FM55 melanoma); 50 nM on IGF-1R [3] (MCF-7 breast cancer); 20 nM on IGF-1R [3] (setting [7]); 60 nM on IGF-1R [3] (PC-3 prostate cancer). Further, the EC50 was determined as 30 nM at IGF-1R [3] (RD-ES Ewing's sarcoma); 40 nM at IGF-1R [3] (SK-MEL-2 melanoma); 30 nM at IGF-1R [3] (SK-MEL-5 melanoma); 30 nM at IGF-1R [3] (SK-MEL-28 melanoma); 60 nM in experiment [4] (48 h); 100 nM in experiment [5]. In addition, the EC50 is greater than 15000 nM in the experiment on HepG2 hepatoma cell line (Homo sapiens, HepG2, 48 h, read-out: EC50 for cell viability) and greater than 15000 nM in experiment [6]. The viability at 0.05 µM in the experiment with HaCaT cells (HaCaT) was 30%.
